Legend:
[1] = system: murine renal cell carcinoma (RENCA); assay: Blood vessel density in primary tumors of murine renal cell carcinoma (RENCA) model; type: in vivo, Balb/c mice; details: sacrifice day 21
Method: Murine RENCA cells were originally obtained from a tumor that arose spontaneously in the kidney of BALB/c mice. Histologically, RENCA consists of granular cell type adenocarcinoma, which is pleomorphic with large nuclei. Monolayers of murine RENCA cells were grown in RPMI 1640 with phenol red supplemented with 10% FCS, 2 mM L-glutamine, 100 units penicillin/ml, and 100 μg of streptomycin/ml. RENCA cells were cultured in a humidified atmosphere of 95% air and-5% carbon dioxide at 37° C. Media were routinely changed every 3 days.
For the in vivo administration N-[4-(1-benzoyl-piperidin-4-yl)-butyl]-3-(pyridin-3-yl)-acrylamide was solubilized in a 0.9% saline solution and TNP-470 in a saline solution containing 3% absolute ethanol.
All experiments were carried out using 6-8 weeks old male Balb/c mice (approximate weight, 20 g). Mice are maintained in separated conventional housing at constant temperature and humidity […]
All animals were sacrificed on day 21 after tumor implantation and the tumor tissue of all animals was surgically removed and quickly frozen in liquid nitrogen. […] For the visualization of the blood vessels, immunohistochemical staining for CD 31 (PECAM-1 and MEC 13.3; PharMingen, San Diego, Calif.) was performed, and vessels were counted microscopically using a defined magnification.

[2] = Maximum tolerated dose (MTD); parameters: species or system Balb/c mice; details: Balb/c, mouse, in vivo
Method: N-[4-(1-benzoyl-piperidin-4-yl)-butyl]-3-(pyridin-3-yl)-acrylamide was given to the animals p.o. twice a day on days 10, 11, 12, 13, 14, and 15 after tumor implantation. The doses were 3, 5, 6, or 10 mg/kg per each administration. TNP-470 was injected into the animals s.c. on days 2, 4, 6, 8, 10, 12, 14, 16, 18 and 20 after tumor implantation at the maximum tolerated dose, 30 mg/kg. Control animals received the vehicle (0.9% saline solution) p.o. twice a day on days 10, 11, 12, 13, 14, and 15 after tumor implantation. At least seven animals per test group were used.
TNP-470 was administered at the MTD (maximum tolerated dose), 30 mg/kg, and over a longer time range than BPPA which was given below the MTD (approximately 12 mg/kg).

[3] = system: VEGF production in HepG2 cells; assay: VEGF production in HepG2 cells (ELISA of culture supernatant); type: cell-based, human
Method: Trypsin/EDTA: 0.05% (w/v) trypsin (Difco, Detroit, USA)+0.016% (w/v) EDTA (Sigma, Deisenhofen, Germany). N-[4-(1-benzoyl-piperidin-4-yl)-butyl]-3-(pyridin-3-yl)-acrylamide (in the following also referred to as BPPA) was synthesized as described in the literature, by the department of chemistry at Klinge Pharma GmbH, Munich, Germany.
Stock solutions of test compound: a 10 mM solution was prepared in dimethyl sulfoxide (DMSO) and stored at −18° C.; further dilution steps were done in ethanol.
The human-derived tumor cell lines HepG2 (liver carcinoma) was obtained from the American Type Culture Collection (ATCC), Rockville, Md., USA.
Richter's Improved Minimal Essential Medium, Zinc Option (IMEM-ZO), was purchased from Gibco BRL, Life Technologies (Eggenstein, Germany). The standard medium MEM and the human serum albumin were purchased from Sigma (Deisenhofen, Germany). The medium powder was dissolved in deionized water, the pH titrated to 7.2 with HCl/NaOH and sterilized by filtration. The medium was supplemented with 10% fetal calf serum (FCS), PAN Systems GmbH, Aidenbach, Germany.
Monolayer cells were detached from 75 cm^2 flasks by removing the growth medium and adding 3 ml trypsin/EDTA solution to each flask. After about 5-10 minutes incubation at 37° C., when the cells were detached from the surface of the dishes, trypsinization was stopped by adding 3 ml Richter's IMEM-ZO medium containing 10% FCS. The cells were suspended by repeated pipetting. For predilution, an aliquot of 20 μl was added to 10 ml Casyton isotonic solution (No. 043-90037P, Scharfe System, Reutlingen, Germany) using a Sysmex Auto Dilutor Type AD-260 (Toa, Medical Electronics Co. Ltd., Kobe, Japan). The cell number was determined by electronic cell volume measurements by counting with a CASY 1 Cell Counter & Analyzer System, Model TTC (Schärfe System, Reutlingen, Germany) equipped with a 60 μm capillary. Following dilution in growth medium (IMEM-ZO), the cells were finally seeded at a density of 25,000 cells per 1000 μl in 24-well culture dishes (Greiner, Frickenhausen, Germany) for the VEGF assay and incubated at 37° C. in a humidified atmosphere of 5% CO2 in air.
After six days of incubation, when the cells were nearly confluent, the medium was removed and cultures were replenished with 1 ml fresh serum free MEM medium containing 0.1% human serum albumin plus the test substance or the solvent ethanol as control. The cells were then incubated at 37° C. in a humidified atmosphere of 5% CO2 in air. On the next day the medium was removed again and the cultures were incubated with further 0.5 ml serum free MEM containing 0.1% human serum albumin plus the test substance or the solvent ethanol as control. After 48 and 72 hours the medium was collected, centrifuged at 1000 rpm for 5 minutes to remove cell debris. Supernatants were stored at −20° C. until quantification of the VEGF concentration. Furthermore the protein content of the remaining cell layer in each well was determined as reference parameter.
VEGF determination was measured in the supernatants of the cell cultures using a commercially available ELISA kit (R&D, Systems, Wiesbaden/Germany). The method for the determination was performed as described in the test kit brochure.
The results are summarized in the following Table 1, where the VEGF concentration in the supernatant after 48 h and 72 h of incubation was determined. […]

| SMILES | vessel density in the RENCA tumor, effectiveness compared to BPPA ([1]; 30 mg/kg (MTD) s.c. on days 2, 4, 6, 8, 10, 12, 14, 16, 18 and 20 after tumor implantation) | MTD ([2]; sc) [mg/kg] | vessel density in the RENCA tumor ([1]; 3, 5, 6 and 10 mg/kg p.o. twice a day on days 10-15 after tumor implantation, CD 31 staining) | VEGF concentration in the supernatant ([3]; 2 nM compound in medium, 48 hours incubation) [pg/200 μl] | VEGF concentration in the supernatant ([3]; 2 nM compound in medium, 72 hours incubation) [pg/200 μl] | VEGF concentration in the supernatant ([3]; 20 nM compound in medium, 48 hours incubation) [pg/200 μl] | VEGF concentration in the supernatant ([3]; 20 nM compound in medium, 72 hours incubation) [pg/200 μl] | inhibition of the production of VEGF ([3]; after 48 hours of incubation, FIG. 1) | MTD ([2]; po) [mg/kg] |
| --- | --- | --- | --- | --- | --- | --- | --- | --- | --- |
| CO[C@@H]1[C@H](OC(=O)NC(=O)CCl)CC[C@]2(CO2)[C@H]1[C@@]1(C)O[C@@H]1CC=C(C)C [TNP-470, reference compound] | not as effective as BPPA | 30 | – | – | – | – | – | – | – |
| O=C(C=Cc1cccnc1)NCCCCC1CCN(C(=O)c2ccccc2)CC1 [BPPA, N-[4-(1-benzoyl-piperidin-4-yl)-butyl]-3-(pyridin-3-yl)-acrylamide] | – | – | significantly reduced the vessel density | 208.30 | 0.00 | 0.00 | 0.00 | inhibited the production of VEGF in HepG2 cells very effectively | ~12 |

Reference: patent US20060052419A1, “Use of pyridly amides as inhibitors of angiogenesis” (priority 2002, published 2006)
